SMILES strings stand for the structures. Where only a bound is given, the exact number is not on record here.

Experiment [1] relates to PAK phosphorylation of Vimentin (Ser56). Description: Western blot, PAK phosphorylation of Vimentin (Ser56) in thyroid cancer cells. It is filed as cell-based, Human. The conditions noted are these: 7.5 μM, 6 h, BCPAP, FTC133 and TPC1 cells (FIG. 3). On the procedure:
(§1) Protein isolation and Western blot were performed as previously described. Ringel et al., Cancer research 61:6105-6111 (2001). 25 μg of total cell lysates were loaded into 4-12% SDS-PAGE, electrophoresed, and transferred to nitrocellulose membranes for immunoblotting. Primary antibodies against Akt (#9272), phospho-Akt (Thr308) (#2965), p44/42 MAPK (Erk1/2) (#9107), phospho-p44/42 MAPK (Erk1/2) (Thr202/Tyr204) (#4377) and GAPDH (#2118) were obtained from Cell Signaling Technology (Danvers, Mass., USA). Antibody against Vimentin (V6630) and phospho-Ser55 Vimentin were from Sigma-Aldrich, Inc. (St. Louis, Mo.) and MBL Co. (Nagoya, Japan), respectively. Antibodies against total and phosphorylated S6 were from Cell Signaling Technology®.
(§2) The ability of the compounds with in vitro anti-PAK1 activity was assessed for activity […] in thyroid cancer cells. In addition, because the compounds are based on the structure of a PDK1 inhibitor, PDK1 inhibitory activity was also assessed. Inhibitory activity in cells was estimated using Western blot with primary antibodies directed against kinase-specific phosphorylation sites; serine 56 of vimentin for PAK and threonine 308 of Akt for PDK1. BCPAP, TPC1, and FTC133 thyroid cancer cells were utilized. BCPAP and TPC1 are derived from PTC and have BRAF V600E and RET/PTC1 rearrangements, respectively. FTC133 is derived from a follicular thyroid cancer with an inactivating mutation of PTEN. Similar to the kinase screening assay, cells were treated with the six compounds or OSU-03012 at 7.5 μM concentration or with DMSO vehicle alone. The results were not entirely consistent across the three cell lines presumably related to mutation status or other factors. OSU-03012 inhibited both PDK1 and PAK-mediated phosphorylation of targets as predicted.
(§3) The dose-dependency of compounds 4 and 15 was next assessed (FIG. 4). […] Due to the important role that ERK activation plays in thyroid cancer, and its signaling activation by thyroid oncogenes, the effects of the compounds on ERK phosphorylation was also assessed.
Background: A western blot detects proteins with antibodies after separation by electrophoresis.

Another experiment deals with PAK (Homo sapiens, UniProt Q13153). As to conditions: Porchia et al., Mol Pharmacol 72:1124-1131 (2007); cited from earlier work.
Chain of PAK (Q13153 whole entry): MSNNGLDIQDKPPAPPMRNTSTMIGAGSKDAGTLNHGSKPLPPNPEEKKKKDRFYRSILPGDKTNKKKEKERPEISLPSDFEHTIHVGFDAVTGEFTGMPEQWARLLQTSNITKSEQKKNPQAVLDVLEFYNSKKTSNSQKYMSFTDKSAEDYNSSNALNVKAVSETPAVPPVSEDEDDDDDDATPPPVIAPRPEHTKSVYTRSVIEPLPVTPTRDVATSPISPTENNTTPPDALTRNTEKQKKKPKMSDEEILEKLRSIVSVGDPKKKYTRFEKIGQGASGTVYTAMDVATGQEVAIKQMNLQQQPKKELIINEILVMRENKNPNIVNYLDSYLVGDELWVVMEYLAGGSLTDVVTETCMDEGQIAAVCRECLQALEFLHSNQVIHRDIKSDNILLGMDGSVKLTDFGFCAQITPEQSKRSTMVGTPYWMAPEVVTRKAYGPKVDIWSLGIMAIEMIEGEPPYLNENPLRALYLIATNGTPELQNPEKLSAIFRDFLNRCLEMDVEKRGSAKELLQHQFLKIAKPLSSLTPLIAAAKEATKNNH
Experiment [2] deals with PDK1 phosphorylation of Akt (Thr308). Kind of experiment: Western blot, PDK1 phosphorylation of Akt (Thr308) in thyroid cancer cells. The format is cell-based, Human. As to conditions: 7.5 μM, 6 h, BCPAP, FTC133 and TPC1 cells (FIG. 3). As to the method:
as §1, §2, §3

In the next experiment the target is T1, Recombinant active PAK 1 (Homo sapiens, UniProt Q13153).
T1 construct: purchased Calbiochem
T1 sequence (Q13153 whole entry): as above
Description: In vitro PAK1 kinase assay (MBP substrate, 32P-ATP). The format is biochemical. As to the method: Recombinant active PAK 1 (Calbiochem) was incubated with selected derivatives or 0.1% DMSO in the presence or absence of MBP (Sigma) in a 1× kinase buffer (Cell Signaling). The addition of [γ-32P]-ATP (2.5 μCi/reaction) (Perkin Elmer) started the reaction, which was incubated at 30° C. for 30 minutes. The reaction was terminated by the addition of EDTA. Results were obtained after visualization of ^32P-labeled MBP after separation on 12% polyacrylamide gels and autoradiography. For the Lineweaver-Burk plot analysis, the ratio of radioactive ATP to nonradioactive ATP was not altered. The PAK1 kinase activities are the means of three independent experiments quantified using P81 phosphocellulose paper by a scintillation counter after three washes with 0.75% phosphoric acid.
Screening of OSU-03012 Derivatives to Identify PAK1 Inhibitors. The 17 derivatives along with OSU-03012, each at 7.5 μM, were screened for their ability to inhibit PAK1 activity by in vitro PAK1 kinase assay. The dose was chosen (above the IC50 of OSU-03012) to allow OSU-03012 to serve as a robust positive control. The PAK1 kinase assay was performed using recombinant active PAK1 with myelin basic protein as substrate in the presence of 2.5 μM ATP and 7.5 μM of respective inhibitors.
To further investigate these six compounds, dose-response studies on PAK1 activity were performed by using PAK1 kinase assay. […] We next questioned whether compounds 4 or 15 inhibited PAK1 in an ATP competitive manner as their parent compound OSU-03012.

The subject of a further experiment is BCPAP cells. Description: MTT cell viability assay, BCPAP. As to conditions: Homo sapiens, BCPAP, 72-hours of exposure, 1% FBS, mean±standard deviation (n=3), read-out: IC50 for reducing viability of BCPAP cells versus DMSO control. The format is cell-based, Human. The text has this:
(§4) Human thyroid cancer BCPAP, TPC1, and FTC133 cell lines were the generous gifts of Drs. Rebecca Schweppe and Bryan Haugen (University of Colorado Denver) (Schweppe et al., The Journal of clinical endocrinology and metabolism 83:4331-4341 (2008)) with permission from the following originating laboratories: BCPAP—Dr. Fabien, Centre Hospitalier Lyon-Sud, France (Fabien et al., Cancer 73:2206-2212 (1994)); TPC1—Dr. Sato, Kanazawa University, Japan (Tanaka et al., Virology 161:62-411 (1987)); and FTC133—Dr. Goretzki, University of Leipzig, Germany (Goretzki et al., Recent Results Cancer Res 118:48-63 (1990)). The obtained cell lines were confirmed for identity by DNA fingerprinting. BCPAP was grown in RPMI 1640 medium (Life Technologies Co., Carlsbad, Calif.) while FTC133 and TPC1 were grown in DMEM (Life Technologies Co.), both supplemented with 10% fetal bovine serum (FBS) and NEAA unless as noted for experiments.
(§5) The effect of OSU-03012 and its derivatives on cell viability was assessed by using the 3-(4,5-dimethylthiazol-2-yl)-2,5-diphenyl-2H-tetrazolium bromide (MTT) assay. Three replicates were performed in each individual experiment, and experiments were repeated at least three separate times. Cells were grown in 96-well plates for 24 hours and were exposed to various concentrations of drugs dissolved in DMSO (final concentration 0.1%) in RPMI 1640 or DMEM containing 1% FBS for 72 hours. 10 μL of 0.5 mg/ml MTT was added to each well and cells were incubated in CO2 at 37° C. for 2 hours. Supernatants were removed from the wells, the reduced MTT dye was solubilized in 100 μL of solution C (12 ml of 1N HCl in 300 mL of isopropanol), and absorbance at 570 nm was determined on a microplate reader.
(§6) We assessed the ability of the compounds to reduce cell viability in vitro by MTT assay after 72 hours of continuous exposure. Results are shown in Table 1 and are depicted as the IC50 vs. simultaneously performed DMSO control.
(§7) ^aThe reported IC50 values are concentrations at which BCPAP, FTC133 and TPC1 cell viability by MTT assays 50% of DMSO control after 72-hours of exposure. Data are presented as mean±standard deviation (n=3). PAK and PDK1 Selectivity In Vivo
A general note: Tetrazolium dyes change colour on reduction, which living cells bring about.

The test system of a further experiment is TPC1 cells. Kind of experiment: MTT cell viability assay, TPC1. As to conditions: Homo sapiens, TPC1, 72-hours of exposure, 1% FBS, mean±standard deviation (n=3), read-out: IC50 for reducing viability of TPC1 cells versus DMSO control. It is filed as cell-based, Human.
Source text: as §4, §5, §6, §7

Another experiment deals with FTC133 cells. Description: MTT cell viability assay, FTC133. It is filed as cell-based, Human. The conditions noted are these: Homo sapiens, FTC-133, 72-hours of exposure, 1% FBS, mean±standard deviation (n=3), read-out: IC50 for reducing viability of FTC133 cells versus DMSO control.
Source text: as §4, §5, §6, §7

For the compound `NCC(=O)Nc1ccc(-n2nc(C(F)(F)F)cc2-c2ccc3c(ccc4ccccc43)c2)cc1` [OSU-03012, reference compound], the “PAK phosphorylation of vimentin (Western blot)” value in experiment [1] is given as “inhibited”. For the same compound, on PAK, the “PAK inhibitory activity (previously reported)” value is given as “low micromolar concentrations”. The “PDK1 phosphorylation of Akt (Thr308) (Western blot)” value in experiment [2] is listed as “inhibited”. In addition, the IC50 at Recombinant active PAK 1 (in vitro kinase assay, read-out: IC50 versus PAK, in vitro (bound implied by chosen test concentration)) was below 7.5 µM; in the experiment on BCPAP cells, 2.93 ± 1.05 µM; with TPC1 cells, 2.8 ± 1.33 µM; with FTC133 cells it was 2.93 ± 1.87 µM.

As to `NCCC(=O)Nc1ccc(-n2nc(CO)cc2-c2ccc3ccc4ccccc4c3c2)cc1` [Compound 11, 3-Amino-N-(4-(3-(hydroxymethyl)-5-(phenanthren-3-yl)-1H-pyrazol-1-yl)phenyl)-propanamide], the “PAK phosphorylation of vimentin (Western blot)” value in experiment [1] was “did not significantly alter PAK phosphorylation of vimentin”. The “PDK1 phosphorylation of Akt (Thr308) (Western blot)” value in experiment [2] is “markedly inhibit PDK1 phosphorylation of Akt”. In addition, the “Inhibition of PAK1 kinase activity in initial screen” value on Recombinant active PAK 1 (7.5 μM inhibitor, 2.5 μM ATP, myelin basic protein substrate (FIG. 2A)) is “inhibited PAK1 kinase activity”. Further, at Recombinant active PAK 1 (in vitro kinase assay, comparison between compounds / with OSU-03012), the “Relative PAK1 inhibitory potency (comparison in words)” value was “more potent”. Also, the IC50 in the experiment on BCPAP cells is 4.5 ± 1.04 µM; in the experiment with TPC1 cells, 4.98 ± 1.94 µM; in the experiment on FTC133 cells, 3.94 ± 2.29 µM.

(Values after patent publication US9156790B2, “Anticancer P21-activated kinase inhibitors” (Ohio State Innovation Foundation, priority 2013, dated 2015).)
